Where two headings read alike, the source gives them in different places.
Assays:
[1] = test system: SARS-CoV-2 hCoV-19/Australia/VIC01/2020 (lineage B); experiment: Reduction of cytopathic effect on Vero E6 cells, MTT, strain hCoV-19/Australia/VIC01/2020; type: cell-based
[2] = test system: Vero E6 cells
[3] = in vitro; settings: African green monkey
[4] = test system: HIV-1 pseudotyped virus SF162.LS (subtype B); experiment: TZM-bl neutralization assay with HIV-1 env-pseudovirus SF162.LS; type: cell-based; settings: read-out: IC50 SF162.LS, TZM-bl cells, luciferase after 48 h
[5] = test system: HIV-1 pseudotyped virus OH0692 (subtype B); experiment: TZM-bl neutralization assay with HIV-1 env-pseudovirus OH0692; type: cell-based; settings: read-out: IC50 OH0692; HIV-1 env-pseudovirus OH0692, TZM-bl cells, luciferase after 48 h
[6] = test system: HIV-1 pseudotyped virus 16RU28 (recombinant form CRF63_02A); experiment: TZM-bl neutralization assay with HIV-1 env-pseudovirus 16RU28; type: cell-based; settings: read-out: IC50 16RU28; HIV-1 env-pseudovirus 16RU28 (CRF63_02A), TZM-bl cells, luciferase after 48 h
[7] = MTT cytotoxicity assay in TZM-bl cells; type: cell-based; settings: human; TZM-bl cells, MTT test, 72 h incubation
Procedure: (§1) The cytotoxicity of the obtained compounds was assessed in TZM-bl cells using the MTT test. The preparations were diluted with DMEM medium so that their starting concentration was 1000 μM and the final volume of DMSO was no more than 1%. Additionally, we compared the cytotoxicity of DMEM and medium with 1% DMSO in TZM-bl cells and found no significant differences in cell survival. […] A range of non-toxic concentrations was determined for each compound and used in subsequent experiments on their antiviral activity.
(§2) TZM-bl cells were seeded into 96-well culture plates (100 μL of cell suspension or 10^4 p cells per well) and placed in a CO2 incubator. The test compounds were dissolved in DMSO at a concentration of 100 mM. After 24 h of incubation, various concentrations of the test compounds (1000, 500, 250, 125, 62.5, 31.25, and 15.6 μM) were added by titration to the TZM-bl cell culture, in triplicates. DMSO was added to the control wells at a concentration of no more than 1%. The plates with the introduced drugs were incubated in a CO2 incubator at 37 °C under 5% CO2. After 72 h of incubation, 20 μL of MTT working solution (5 mg/mL) was added to each well and the plates were again incubated under the same conditions. After 2 h, the plates were removed from the CO2 incubator, and the medium in each well was replaced with DMSO solution (50 μL per well). The plates were shaken gently to dissolve the formazan crystals. The optical density of each well was determined at 570 nm using a Varioscan LUX plate reader (Thermo scientific). The survival rate of TZM-bl cells in the presence of the tested compounds was calculated using the formula: (OD of experimental wells—OD of medium)/(OD of control wells—OD of medium) × 100%, where OD is optical density.

[8] = test system: TZM-bl cells; experiment: MTT cytotoxicity assay in TZM-bl cells; type: cell-based; settings: MTT test
Procedure: as §1, §2

[9] = test system: HIV-1 pseudotyped viruses; experiment: Inhibitory activity against HIV-1 pseudoviruses in TZM-bl cells (summary statements); type: cell-based; settings: neutralizing assays, SF162.LS, QH0692, 16RU28
Procedure: To evaluate the inhibitory activities of the synthesized compounds, HIV-1 pseudotyped viruses SF162.LS and […] subtype B (which are included in the international reference panel), and pseudotyped viruses of the recombinant form CRF63_02A—16RU28 HIV-1 were used. Genetic variant CRF63_02A is currently the dominant type in Siberia and is rapidly spreading in the rest of the Russian Federation.
The anti-HIV-1 activity of the tested compounds was performed using the TZM-bl assay, carried out in 96-well culture plates, as described previously. Briefly, serial 2-fold dilutions of the tested compounds were prepared in DMEM growth medium, 200 TCID50 pseudovirus were added to each well and incubated for 1 h at 37 °C under 5% CO2. Trypsinized TZM-bl cell suspension was then added (100 μL of 2 × 10^5 cells/mL) and plates were further incubated at 37 °C under 5% CO2. After 48 h, the luminescence signal was recorded using the luciferase assay system (Promega). The percent inhibition for each compound was calculated as the ratio between the relative luminescence unit (RLU) values of the test wells (sample + pseudovirus + cells) and the virus control (pseudovirus + cells). Samples were tested in triplicates, and the experiment was repeated twice.

[10] = test system: SARS-CoV-2 (three strains); experiment: Antiviral activity against three strains of SARS-CoV-2 on Vero E6 cells (summary statements)

Compound	IC50 ([1]; Severe acute respiratory syndrome coronavirus 2, Vero C1008, 96 h, Vero E6 cells, 100 TCD50 per well, 4 days, MTT, lineage B, read-out: IC50 hCoV-19/Aust/VIC01/2020)	IC50 ([1]; Vero C1008, SARS-CoV 2 (B), SOFTmax PRO 4.0, primary data, read-out: parameter C of 4-parameter fit, activity curve)	parameter C of 4-parameter fit, toxity curve ([2]; SOFTmax PRO 4.0, primary data, plate with strain B)	CC50 at 4 days ([3]; Vero E6 cells)	IC50 [4]	IC50 [5]	IC50 [6]	CC50 at 72 h [7]	toxicity against the TZM-bl cell line (in words) [8]	inhibitory activity against HIV-1 pseudotyped viruses (in words) [9]	cytotoxicity on Vero cells (in words) [2]	CC50 [3]	antiviral activity against the three coronavirus strains (in words) [10]
CCC(CC)COC(=O)[C@H](C)N[P@](=O)(OC[C@H]1O[C@@](C#N)(c2ccc3c(N)ncnn23)[C@H](O)[C@@H]1O)Oc1ccccc1 [Remdesivir]	3.3 ± 0.12 µM	2020 µg/mL	428,695 µg/ml	711 ± 21.2 µM	–	–	–	–	–	–	–	–	–
Maraviroc [MVC]	–	–	–	–	0.002 µM	0.002 µM	0.0016 µM	–	–	–	–	–	–
CC1(C)[C@@H](O[C@H]2O[C@H](C(=O)O)[C@@H](O)[C@H](O)[C@H]2O[C@@H]2O[C@H](C(=O)O)[C@@H](O)[C@H](O)[C@H]2O)CC[C@]2(C)[C@H]3C(=O)C=C4[C@@H]5C[C@@](C)(C(=O)O)CC[C@]5(C)CC[C@@]4(C)[C@]3(C)CC[C@@H]12 [Glycyrrhizin]	–	–	–	–	–	–	–	> 1000 µM	negligible toxicity	did not exhibit any inhibitory activity	no cytotoxicity	> 1000 µM	no antiviral activity
CC1(C)C2CC[C@]3(C)C(C(=O)C=C4[C@@H]5C[C@@](C)(C(=O)O)CC[C@]5(C)CC[C@]43C)[C@@]2(C)CC[C@@H]1OC(=O)c1cccnc1 (stereo partly shown) [Nic-GA, glycyrrhetinic acid nicotinate]	–	–	–	–	–	–	–	< 7.8 µM	some cytotoxic activity	lack of inhibition	less toxic to Vero cells than to Tzm-bl cells	101 µM	did not exhibit any antiviral activity

Source: paper PMC8746574 (Molecules, 2022)
